Experiments:
[1] = system: chloroquine sensitive (CQS) strain (NF54) of P. falciparum; assay: In vitro antiplasmodial activity, Assay A (parasite lactate dehydrogenase assay); type: cell-based; details: Plasmodium falciparum
Procedure: Test samples were screened for in vitro antiplasmodial activity against a chloroquine sensitive (CQS) strain (NF54) of the malaria parasite P. falciparum. Continuous in vitro cultures of asexual erythrocyte stages of P. falciparum were maintained using a modified version of the method of Trager and Jensen (1976).1 Quantitative assessment of antiplasmodial activity in vitro was determined via the parasite lactate dehydrogenase assay using a modified method described by Makler (1993). The test samples were tested in triplicate on two separate occasions. Further dilutions were prepared in complete medium on the day of the experiment. Samples were tested as a suspension if not completely dissolved. Chloroquine and artesunate were used as the reference drugs. A full dose-response were performed starting at a concentration of 3000 nM, which is then serially diluted 2-fold in complete medium to give 10 concentrations; with the lowest concentration being approximately 6 nM. The same dilution techniques were used for all samples. References were tested at a starting concentration of 1000 ng/mL. The highest concentration of solvent to which the parasites were exposed has no measurable effect on the parasite viability (data not shown).

[2] = system: CQC sensitive strain (NF54) of P. falciparum; assay: In vitro antiplasmodial activity, Assay B (as described by Vennerstrom et al. 2004); type: cell-based; details: Plasmodium falciparum; NF54, Vennerstrom et al. method
Procedure: Compounds were screened against CQC sensitive strain (NF54) of P. falciparum in vitro as described by Vennerstrom et al. (2004). A full dose-response were performed starting at a concentration of 3000 nM, which is then serially diluted 2-fold in complete medium to give 10 concentrations; with the lowest concentration being approximately 6 nM. The same dilution techniques were used for all samples. References were tested at a starting concentration of 1000 ng/mL. The highest concentration of solvent to which the parasites were exposed has no measurable effect on the parasite viability (data not shown).

Row | IC50 [1] [nM] | IC50 [2] [nM] | SMILES
1 | 15 to 50 | < 15 | C[C@H]1CN(C(=O)c2ccc(-c3cc4ncnc(-c5ccnc(C(C)(C)O)c5)c4o3)cc2)CCO1 [Compound P18, (S)-(4-(4-(2-(2-hydroxypropan-2-yl)pyridin-4-yl)furo[3,2-d]pyrimidin-6-yl)phenyl)(2-methylmorpholino) methanone]
2 | 15 to 50 | < 15 | C[C@H]1COCCN1C(=O)c1ccc(-c2cc3ncnc(-c4ccnc(C(C)(C)O)c4)c3o2)cc1 [Compound D159, (S)-(4-(4-(2-(2-hydroxypropan-2-yl)pyridin-4-yl)furo[3,2-d]pyrimidin-6-yl)phenyl)(3-methylmorpholino) methanone]
3 | < 15 | < 15 | CC(C)(O)c1nccc(-c2ncnc3cc(-c4ccc(C(=O)N5C[C@H]6C[C@@H]5CO6)cc4)oc23)c1F [Compound D208, ((1R,4R)-2-oxa-5-azabicyclo[2.2.1]heptan-5-yl)(4-(4-(3-fluoro-2-(2-hydroxypropan-2-yl)pyridin-4-yl)furo[3,2-d]pyrimidin-6-yl)phenyl)methanone]
4 | < 15 | < 15 | CC(C)(O)c1cccc(-c2ncnc3cc(-c4ccc(C(=O)N5C[C@H]6C[C@@H]5CO6)cc4)oc23)c1F [Compound P21, ((1R,4R)-2-oxa-5-azabicyclo[2.2.1]heptan-5-yl)(4-(4-(2-fluoro-3-(2-hydroxypropan-2-yl)phenyl)furo[3,2-d]pyrimidin-6-yl)phenyl)methanone]
5 | > 50 | > 50 | CC(C)(O)c1cc(-c2ncnc3cc(-c4ccc(C5(C(=O)N6C[C@@H]7C[C@H]6CO7)CC5)cc4)oc23)ccn1 [Compound P23, ((1S,4S)-2-oxa-5-azabicyclo[2.2.1]heptan-5-yl)(1-(4-(4-(2-(2-hydroxypropan-2-yl)pyridin-4-yl)furo[3,2-d]pyrimidin-6-yl)phenyl)cyclopropyl) methanone]
6 | 15 to 50 | < 15 | C[C@@H]1COCCN1C(=O)c1ccc(-c2cc3ncnc(-c4ccnc(C(C)(C)O)c4)c3o2)cc1 [Compound D160, (R)-(4-(4-(2-(2-hydroxypropan-2-yl)pyridin-4-yl)furo[3,2-d]pyrimidin-6-yl)phenyl)(3-methylmorpholino) methanone]
7 | < 15 | < 15 | CC(C)(O)c1cccc(-c2ncnc3cc(-c4ccc(C(=O)N5C[C@H]6C[C@@H]5CO6)cc4)oc23)c1 [Compound D172, ((1R,4R)-2-oxa-5-azabicyclo[2.2.1]heptan-5-yl)(4-(4-(3-(2-hydroxypropan-2-yl)phenyl)furo[3,2-d]pyrimidin-6-yl)phenyl)methanone]
8 | < 15 | < 15 | CC(C)(O)c1cc(-c2ncnc3cc(-c4ccc(C(=O)N5C[C@@H]6C[C@H]5CO6)cc4)oc23)ccn1 [Compound D176, ((1S,4S)-2-oxa-5-azabicyclo[2.2.1]heptan-5-yl)(4-(4-(2-(2-hydroxypropan-2-yl)pyridin-4-yl)furo[3,2-d]pyrimidin-6-yl)phenyl)methanone]
9 | < 15 | < 15 | CC(C)(O)c1cc(-c2ncnc3cc(-c4ccc(C(=O)N5C[C@H]6C[C@@H]5CO6)cc4)oc23)ccn1 [Compound D177, ((1R,4R)-2-oxa-5-azabicyclo[2.2.1]heptan-5-yl)(4-(4-(2-(2-hydroxypropan-2-yl)pyridin-4-yl)furo[3,2-d]pyrimidin-6-yl)phenyl)methanone]
10 | < 15 | < 15 | CC1CN(C(=O)c2ccc(-c3cc4ncnc(-c5ccnc(C(C)(C)O)c5)c4o3)cc2)CC(C)O1 (stereo not drawn) [Compound D161, (2,6-dimethylmorpholino)(4-(4-(2-(2-hydroxypropan-2-yl)pyridin-4-yl)furo[3,2-d]pyrimidin-6-yl)phenyl)methanone]
11 | < 15 | < 15 | CC(C)(O)c1cccc(-c2ncnc3cc(-c4ccc(C(=O)N5C[C@@H]6C[C@H]5CO6)cc4)oc23)c1 [Compound D174, ((1S,4S)-2-oxa-5-azabicyclo[2.2.1]heptan-5-yl)(4-(4-(3-(2-hydroxypropan-2-yl)phenyl)furo[3,2-d]pyrimidin-6-yl)phenyl)methanone]
12 | > 50 | < 15 | C[C@@H]1CN(C(=O)c2ccc(-c3cc4ncnc(-c5ccnc(C(C)(C)O)c5)c4o3)cc2)C[C@H](C)O1 [Compound P17, ((2S,6R)-2,6-dimethylmorpholino)(4-(4-(2-(2-hydroxypropan-2-yl)pyridin-4-yl)furo[3,2-d]pyrimidin-6-yl)phenyl)methanone]
13 | < 15 | < 15 | C[C@@H]1CN(C(=O)c2ccc(-c3cc4ncnc(-c5ccnc(C(C)(C)O)c5)c4o3)cc2)CCO1 [Compound P19, (R)-(4-(4-(2-(2-hydroxypropan-2-yl)pyridin-4-yl)furo[3,2-d]pyrimidin-6-yl)phenyl)(2-methylmorpholino) methanone]
14 | > 50 | – | CC(C)(O)c1cc(-c2ncnc3cc(-c4ccc(C(=O)N5CCOCC5)cc4)oc23)ccc1F [Compound P32, (4-(4-(4-fluoro-3-(2-hydroxypropan-2-yl)phenyl)furo[3,2-d]pyrimidin-6-yl)phenyl)(morpholino) methanone]

Second part, the compound before the results:

Row | SMILES | IC50 [1] [nM] | IC50 [2] [nM]
15 | C[C@H]1COCCN1C(=O)c1ccc(-c2cc3ncnc(-c4cccc(C(C)(C)O)c4F)c3o2)cc1 [Compound D195, (S)-(4-(4-(2-fluoro-3-(2-hydroxypropan-2-yl)phenyl)furo[3,2-d]pyrimidin-6-yl)phenyl)(3-methylmorpholino) methanone] | < 15 | < 15
16 | CC(C)(O)c1nccc(-c2ncnc3cc(-c4ccc(S(C)(=O)=O)cc4)oc23)c1F [Compound P31, 2-(3-fluoro-4-(6-(4-(methylsulfonyl)phenyl)furo [3,2-d]pyrimidin-4-yl)pyridin-2-yl)propan-2-ol] | < 15 | < 15
17 | CC(C)(O)c1nccc(-c2ncnc3cc(-c4ccc(C(=O)N5CCOCC5)cc4)oc23)c1F [Compound D207, (4-(4-(3-fluoro-2-(2-hydroxypropan-2-yl)pyridin-4-yl)furo[3,2-d]pyrimidin-6-yl)phenyl)(morpholino) methanone] | < 15 | < 15
18 | CS(=O)(=O)c1ccc(-c2cc3ncnc(-c4ccnc(N5CC(O)C5)c4)c3o2)cc1 [Compound P1, 1-(4-(6-(4-(methylsulfonyl)phenyl)furo [3,2-d]pyrimidin-4-yl)pyridin-2-yl)azetidin-3-ol] | > 50 | > 50
19 | C[C@H]1CN(C(=O)c2ccc(-c3cc4ncnc(-c5cccc(C(C)(C)O)c5F)c4o3)cc2)C[C@H](C)O1 [Compound D194, ((2S,6S)-2,6-dimethylmorpholino)(4-(4-(2-fluoro-3-(2-hydroxypropan-2-yl)phenyl)furo[3,2-d]pyrimidin-6-yl)phenyl)methanone] | < 15 | < 15
20 | C[C@@H]1CN(C(=O)c2ccc(-c3cc4ncnc(-c5cccc(C(C)(C)O)c5F)c4o3)cc2)CCO1 [Compound D192, (R)-(4-(4-(2-fluoro-3-(2-hydroxypropan-2-yl)phenyl)furo[3,2-d]pyrimidin-6-yl)phenyl)(2-methylmorpholino) methanone] | < 15 | < 15
21 | C[C@@H]1CN(C(=O)c2ccc(-c3cc4ncnc(-c5cccc(C(C)(C)O)c5F)c4o3)cc2)C[C@@H](C)O1 [Compound D193, ((2R,6R)-2,6-dimethylmorpholino)(4-(4-(2-fluoro-3-(2-hydroxypropan-2-yl)phenyl)furo[3,2-d]pyrimidin-6-yl)phenyl)methanone] | < 15 | < 15
22 | C[C@H]1CN(C(=O)c2ccc(-c3cc4ncnc(-c5cccc(C(C)(C)O)c5F)c4o3)cc2)CCO1 [Compound D191, (S)-(4-(4-(2-fluoro-3-(2-hydroxypropan-2-yl)phenyl)furo[3,2-d]pyrimidin-6-yl)phenyl)(2-methylmorpholino) methanone] | < 15 | < 15
23 | C[C@@H]1CN(C(=O)c2ccc(-c3cc4ncnc(-c5cccc(C(C)(C)O)c5F)c4o3)cc2)C[C@H](C)O1 [Compound P20, ((2S,6R)-2,6-dimethylmorpholino)(4-(4-(2-fluoro-3-(2-hydroxypropan-2-yl)phenyl)furo[3,2-d]pyrimidin-6-yl)phenyl)methanone] | < 15 | < 15
24 | C[C@@H]1COCCN1C(=O)c1ccc(-c2cc3ncnc(-c4cccc(C(C)(C)O)c4F)c3o2)cc1 [Compound D196, (R)-(4-(4-(2-fluoro-3-(2-hydroxypropan-2-yl)phenyl)furo[3,2-d]pyrimidin-6-yl)phenyl)(3-methylmorpholino) methanone] | < 15 | < 15
25 | CC(C)(O)c1cccc(-c2ncnc3cc(-c4ccc(C(=O)N5CCOCC5)cc4)oc23)c1 [Compound P13, (4-(4-(3-(2-hydroxypropan-2-yl)phenyl)furo[3,2-d]pyrimidin-6-yl)phenyl)(morpholino) methanone] | > 50 | –

Source: patent US20260042772A1, “FURO PYRIMIDINE DERIVATES” (Merck Patent GmbH, priority 2022, published 2026)
